# According to publication PMC6235670, “An mTOR Signaling Modulator Suppressed Heterotopic Ossification of Fibrodysplasia Ossificans Progressiva” (Stem Cell Reports, 2018):
# Legend:
# FOP-iMSCs [1] = assay: 2D chondrogenic induction of FOP-iMSCs with activin A (GAG, Alcian blue); format: cell-based, human
# ERBB2 = conditions: panel of 300 recombinant protein kinases; ref Anastassiadis et al., 2011; cited from earlier work
# C57BL/6 mice = assay: Growth plate histology and normal bone µCT in compound-administered BMP-7-injected mice; conditions: 5 mg/kg i.p., 2 weeks
# Procedure: MTOR s604 […]tt […]at […]
# System Engineering) according to the manufacturer's instructions. […]
# BMP-7-induced HO model mice. BMP -7 (2 µ g/mouse) was injected into the right gastrocnemius muscle of C57BL/6NJcl mice (6-8 weeks, male, CLEA Japan), and compounds were administered once a day, five times a week (intraperitoneal administration). Mice were analyzed 2 weeks after injection. […]
# Histological analysis of growth plates chondrocytes. Knee joints were obtained from BMP-7-injected and test compounds-administrated C57BL/6NJcl mice after 2 weeks treatment and fixed, paraffin-embedded, and sectioned and stained with Safranin O. The thickness of the proliferative and hypertrophic zones of the growth plate were measured using ImageJ software on images obtained using a Keyence microscope (Keyence A merica). The proliferative zone was defined as the region with flat chondrocytes stacked in longitudinal columns, and the hypertrophic zone as the region where chondrocytes are enlarged in size and form clusters.
# Normal bone µCT. The left legs of mice were obtained from BMP -7-injected and test -compounds administrated C57BL/6NJcl mice after 2 weeks treatment. The region of interest (ROI) included the femur- tibia (entire femur in addition to the part of tibia above tibia/fibular junction). […]
# Tests of side effects of direct and indirect mTOR inhibitors. Related
# mTOR signaling (p-S6) [2] = assay: p-S6 western blotting during chondrogenic induction of FOP-iMSCs with activin A; format: cell-based, human; conditions: 1 μM
# FOP-iMSCs [3] = assay: Microarray / pathway analysis of activin A-induced chondrogenesis of FOP-iMSCs; format: cell-based, human; conditions: 100 nM, activin A, 7 days
# Procedure: Microarray experiments. 2D chondrogenic induction was performed in FOP-iMSCs stimulated with or without 100 ng/mL Activin-A, TAK 165, CP-724714 and Lapatinib. Seven days after incubation, mRNA was extracted. RNA was reverse transcribed, biotin-labeled and hybridized to GeneChip Human Gene 1.0 ST Expression Array, which was subsequently washed and scanned according to the manufacturer’s instructions (Affymetrix). Raw CEL files were imported into GeneSpring GX 12.6.1 software (Agilent Technologies), and expression values were calculated with the RMA16 algorithm. Pathway analysis was performed by Ingenuity pathway analysis (Qiagen). […]
# ATDC5/FOP-ACVR1 cells = assay: ALP assay (HTS and dose-response) in ATDC5/FOP-ACVR1; format: cell-based, mouse; conditions: Mus musculus, same protocol as HTS (72 h)
# mTOR signaling (p-S6) [4] = assay: p-S6 western blotting in FOP-iMSCs cultured with 10% FBS; format: cell-based, human; conditions: 100 nM, 2 hr
# Procedure: time point t = 24 h from t = 0 h, and relative cell migration was expressed as the ratio of the absolute cell migrations between the experimental and control groups by using CL-Quant software (Nikon Corp.).
# Quantitative PCR analysis. Total RNA was purified with RNeasy Kit (Qiagen) and treated with DNase -one Kit (Qiagen) to remove genomic DNA. Total RNA (0.3 µg) was reverse transcribed for single-stranded cDNA using random primers and Superscript III reverse transcriptase (Thermo Fisher Scientific) according to the manufacturer’s instructions. Quantitative PCR was performed with Thunderbird SYBR qPCR Mix (TOYOBO) and analyzed with the StepOne real-time PCR system (Applied Biosystems). […]
# Microarray experiments. 2D chondrogenic induction was performed in FOP-iMSCs stimulated with or without 100 ng/mL Activin-A, TAK 165, CP-724714 and Lapatinib. […] Raw CEL files were imported into GeneSpring GX 12.6.1 software (Agilent Technologies), and expression values were calculated with the RMA16 algorithm. […]
# Protein bands were detected with ECL Prime Western Blotting Detection Reagent (GE Healthcare) and visualized using BIO-RAD Molecular Imager® Chemi-DocTM XRS+ with Image LabTM software (Bio-Rad). […]
# GAG value. The GAG content was quantified in pellets with the Blyscan Glycosaminoglycan Assay Kit (Biocolor). The DNA content was quantified using PicoGreen dsDNA Quantitation Kit (Thermo Fisher […]
# BMP signaling (BRE-Luc) = assay: BRE-Luc reporter assay in FOP-iMSCs; format: cell-based, human; conditions: activin A and compounds for 16 hr
# Procedure: FOP-iMSCs transiently transfected with BRE-Luc (A) or CAGA-Luc (B) with CMV-Renilla were stimulated with activin A and compounds for 16 hr (A) or 3 hr (B). […] One day after siRNA transfection, chondrogenic induction with activin A was initiated, and after 7 days the cells were harvested. […] FOP-iMSCs cultured with 10% FBS were treated with 100 nM rapamycin (Rapa) or TAK 165 (TAK) for 2 hr, and the cells were harvested. […] 1 μM TAK, 1 μM CP (CP-724714, another selective ERBB2 inhibitor), or 10 nM Rapa were applied in the experiments.
smiles,measurement,setting,value
"FC(F)(F)c1ccc(/C=C/c2nc(COc3ccc(CCCCn4ccnn4)cc3)co2)cc1 [TAK 165, mubritinib]",inhibition of glycosaminoglycan (GAG) production,"FOP-iMSCs [1]; 1 μM, activin A, 7 days",potent inhibition
same,"suppression of chondrogenic induction (GAG), dose dependence","FOP-iMSCs [1]; activin A, 7 days",dose-dependent
same,Alcian blue staining,FOP-iMSCs [1]; compared with other HTS hits,obviously different effects
same,selectivity for ERBB2,ERBB2,highly selective
same,Bone Mineral Density (normal bone µCT) vs vehicle,C57BL/6 mice,n.s.
same,"Bone volume (normal bone µCT, femur-tibia) vs vehicle",C57BL/6 mice,n.s.
same,Hypertrophic zone thickness of growth plate vs vehicle,C57BL/6 mice,n.s.
same,Proliferative zone thickness of growth plate vs vehicle,C57BL/6 mice,n.s.
same,chondrogenesis of normal chondrocytes (growth plate),C57BL/6 mice,did not impair
same,normal skeletal development in vivo,C57BL/6 mice,did not impair
same,p-S6 after 24-hr stimulation,mTOR signaling (p-S6) [2]; 24 hr,no effects
same,p-S6 after 7 days of stimulation,mTOR signaling (p-S6) [2]; 7 days,dramatically decreased
same,transcriptome: genes involved in chondrogenesis or osteogenesis,FOP-iMSCs [3],affected genes that are involved in chondrogenesis or osteogenesis
same,IC50,ATDC5/FOP-ACVR1 cells,39 nM
same,p-S6 levels (direct mTOR inhibition),mTOR signaling (p-S6) [4],did not
same,BRE-Luc (BMP-specific luciferase reporter),BMP signaling (BRE-Luc),did not affect
